Data reported in patent US20080220083A1, “Pharmaceutical Agent Comprising Blood Components <10 Kda And Their Use For Prophylaxis And Treatment Of Defects Of The Immune System” (priority 2004, published 2008).

Tested on: guinea pig T lymphocytes
Test: rosette test on guinea pig T lymphocytes in immunosuppressed guinea pigs
Assay type: in vivo
Method: The composition of the invention was also tested in vivo in various animal systems. Using the rosette test on guinea pig T lymphocytes, the state of cellular immunity under the influence of the composition according to the invention in combination with Oxoplatin, Campto, Taxol and Eloxatin was investigated. In each test, the improvement of the T lymphocyte state in immunosuppressed guinea pigs after administration of the composition according to the invention was tested. Prior to testing, the level of T lymphocytes in the guinea pigs was determined using the rosette test, and subsequently, the decrease in the amount of T lymphocytes caused by the immunosuppressant Azathioprin was determined. A second determination of the T lymphocytes was made seven days after application of Azathioprin. This was followed by subcutaneous application of the composition of the invention into the laboratory animals. The last determination of the T lymphocyte count in the guinea pigs was made 14 to 19 days after application of the composition according to the invention.

Compound	drop in production of rosettes following application of the cytostatic agent (guinea pigs, rosette test) [%]	drop in production of rosettes following application of the cytostatic agent (guinea pig, in vivo)
CCc1c2c(nc3ccc(OC(=O)N4CCC(N5CCCCC5)CC4)cc13)-c1cc3c(c(=O)n1C2)COC(=O)[C@]3(O)CC [Campto]	23	–
O=C1[O][Pt]2([NH][C@@H]3CCCC[C@H]3[NH]2)[O]C1=O [Eloxatin]	–	22%
N.N.[Cl-].[Cl-].[OH-].[OH-].[Pt+4] [Oxoplatin]	–	about 30%
CC(=O)O[C@H]1C(=O)[C@@]2(C)[C@H]([C@H](OC(=O)c3ccccc3)[C@]3(O)C[C@H](OC(=O)[C@H](O)[C@@H](NC(=O)c4ccccc4)c4ccccc4)C(C)=C1C3(C)C)[C@]1(OC(C)=O)CO[C@@H]1C[C@@H]2O [Taxol]	–	16%
